Test results from US20230346969A1, “INTERMEDIATE FOR PREPARING ANTIBODY-DRUG CONJUGATE (ADC), PREPARATION METHOD THEREFOR, AND USE THEREOF” (priority 2020, published 2023).
Like-named read-outs stand apart in the source and are kept apart here.

Columns and labels:
[1] = tested on: BXPC-3; experiment: Cell viability assay (CCK-8); type: cell-based; conditions: CCK-8, 96 hours, Pancreas, read-out: IC50 (95% Cl)
Experimental: (§1) Cell viability was determined using Cell Counting Kit 8 (CCK-8). Cells were seeded into 96-well plates at 3000-10000 cells/well. After incubation overnight, drugs were added at different concentrations. Plates were incubated in a 5% CO2, 37° C. humidified chamber for 96 hours. CCK8 reagent was added thereto and the plates were placed back to the incubator until the absorbance at 450 nm of untreated control cells was greater than 1.0. Growth inhibition was measured as the percent growth relative to untreated cells. Dose response curve was generated from the mean values of two or three tests, and IC50 values were calculated using Prism GraphPad software.
(§2) The anti-tumor efficacy of different payloads on different tumor cell lines was detected by CCK-8, and the results are shown in FIG. 5.

[2] = tested on: SCLC-21H; experiment: Cell viability assay (CCK-8); type: cell-based; conditions: CCK-8, 96 hours, read-out: IC50 (95% Cl)
Experimental: as §1, §2

[3] = tested on: COLO205; experiment: Cell viability assay (CCK-8); type: cell-based; conditions: CCK-8, 96 hours, read-out: IC50 (95% Cl)
Experimental: as §1, §2

[4] = tested on: HCC1806; experiment: Cell viability assay (CCK-8); type: cell-based; conditions: CCK-8, 96 hours, Mamary, read-out: IC50 (95% Cl)
Experimental: as §1, §2

[5] = tested on: SK-MES-1; experiment: Cell viability assay (CCK-8); type: cell-based; conditions: CCK-8, 96 hours, Lung, read-out: IC50 (95% Cl)
Experimental: as §1, §2

[6] = tested on: Capan-1; experiment: Cell viability assay (CCK-8); type: cell-based; conditions: CCK-8, 96 hours, Pancreas, read-out: IC50 (95% Cl)
Experimental: as §1, §2

[7] = tested on: MDA-MB-231; experiment: Cell viability assay (CCK-8); type: cell-based; conditions: CCK-8, 96 hours, Mamary, read-out: IC50 (95% Cl)
Experimental: as §1, §2

[8] = tested on: HT29; experiment: Cell viability assay (CCK-8); type: cell-based; conditions: CCK-8, 96 hours, Colon, read-out: IC50 (95% Cl)
Experimental: as §1, §2

[9] = tested on: CFPAC-1; experiment: Cell viability assay (CCK-8); type: cell-based; conditions: CCK-8, 96 hours, read-out: IC50 (95% Cl)
Experimental: as §1, §2

[10] = tested on: MDA-MB-468; experiment: Cell viability assay (CCK-8); type: cell-based; conditions: CCK-8, 96 hours, read-out: IC50 (95% Cl)
Experimental: as §1, §2

[11] = tested on: SKBR3; experiment: Cell viability assay (CCK-8); type: cell-based; conditions: CCK-8, 96 hours, read-out: IC50 (95% Cl)
Experimental: as §1, §2

[12] = tested on: NCI-H1688; experiment: Cell viability assay (CCK-8); type: cell-based; conditions: CCK-8, 96 hours, Lung, read-out: IC50 (95% Cl)
Experimental: as §1, §2

[13] = tested on: NCIH1688 cells; experiment: Transplanted tumor from NCIH1688 cells alone (not expressing Trop-2); type: in vivo, BALB/c-nu/nu mice; conditions: hRS7-VK-PTX 10 mg/kg, hRS7-VK-MMAE 3 mg/kg
Description: (§3) Five-week-old female athymic BALB/c nu/nu mice were purchased from Charles River Company (Shanghai, China), and mice were randomly divided into 5-6 mice/group. Animal handling and procedures were approved and performed in accordance with the requirements of the Institutional Animal Care and Use Committee (IACUC) of Shanghai Institute of Materia Medica, Chinese Academy of Sciences. All models were inoculated subcutaneously on the side of mice. BXPC-3, HCC1806 and NCIH1688 cells were established by injecting and homogenizing 5 × 10^6 cells in Matrigel matrix. COLO205 cells were established by injecting and suspending 1 × 10^7 cells in Matrigel matrix. After the tumor volume reached about 200 mm^3, the tumor-bearing mice were randomly divided into treatment groups and a control group according to the tumor volume. Each drug was administered intraperitoneally. […] The percentage of inhibition was calculated by the following formula: (1-average tumor volume of the treatment group/average tumor volume of the control group)×100%. Toxicity of the different treatment groups was assessed by monitoring weight loss.
(§4) A mixture of Trop-2-positive tumor cells BXPC-3 and Trop-2-negative tumor cells NCIH1688 or NCIH1688 cells alone were inoculated into BALB/c-nu/nu mice (FIG. 1e, right panel), and the “bystander effect” of hRS7-VK-PTX was detected in a mouse transplanted tumor model.

[14] = Adverse effects and weight loss of mice treated in the efficacy models; type: in vivo, BALB/c nu/nu mice
Description: Five-week-old female athymic BALB/c nu/nu mice were purchased from Charles River Company (Shanghai, China), and mice were randomly divided into 5-6 mice/group. Animal handling and procedures were approved and performed in accordance with the requirements of the Institutional Animal Care and Use Committee (IACUC) of Shanghai Institute of Materia Medica, Chinese Academy of Sciences. All models were inoculated subcutaneously on the side of mice. BXPC-3, HCC1806 and NCIH1688 cells were established by injecting and homogenizing 5 × 10^6 cells in Matrigel matrix. COLO205 cells were established by injecting and suspending 1 × 10^7 cells in Matrigel matrix. After the tumor volume reached about 200 mm^3, the tumor-bearing mice were randomly divided into treatment groups and a control group according to the tumor volume. Each drug was administered intraperitoneally. Mice were injected at doses of 3 or 10 mg/kg (10 mL/kg). Tumor volume was defined as length × ½ × width × width. The percentage of inhibition was calculated by the following formula: (1-average tumor volume of the treatment group/average tumor volume of the control group)×100%. Toxicity of the different treatment groups was assessed by monitoring weight loss.

[15] = tested on: mixture of Trop-2-positive tumor cells BXPC-3 and Trop-2-negative tumor cells NCIH1688; experiment: Bystander effect: transplanted tumor from mixture of BXPC-3 and NCIH1688 cells; type: in vivo, BALB/c-nu/nu mice; conditions: 3 mg/kg, transplanted tumors heterogeneously expressing Trop-2
Description: as §3, §4

[16] = tested on: NCIH2452; experiment: Cell viability assay (CCK-8); type: cell-based; conditions: ADCs; CCK-8, 96 hours; cell 'HOC2401' [sic], Lung; read-out: IC50 (95% Cl)
Experimental: as §1, §2

[17] = Dose tolerability, single intravenous dose acute toxicity; type: in vivo; conditions: single intravenous dose 60 mg/kg, BALB/c mice
Experimental: Dose tolerability assay was performed in BALB/c mice (3 mice per dose). The drug was given in a single intravenous dose. The injection doses of hRS7-VK-PTX were 60, 80 and 100 mg/kg, and the injection doses of hRS7-VK-MMAE were 60 and 80 mg/kg, respectively. Toxicity was assessed by observing mouse behavior, weight loss and survival. The weight change rate (%) was calculated as: (body weight - body weight before treatment)/(body weight before treatment) × 100%.
The safety of relatively high doses of hRS7-VK-PTX in BALB/c mice was studied by an acute toxicity experiment with single intravenous administration in mice.

[18] = tested on: SKBR3 cells; experiment: Endocytosis and intracellular localization of ADC by confocal microscopy; type: cell-based; conditions: 5 µg/mL, 37° C., 45 or 90 min
Experimental: SKBR3 cells were incubated with 5 µg/mL of hRS7-VK-PTX or hRS7-VK-SN38 in a 24-well plate (1 × 10^4 cells/well) in a 5% CO2, 37° C. incubator for 45 or 90 min. Cells were washed once with PBS, fixed and permeabilized. After washing, cells were stained with 488 goat anti-human IgG (H&L) or 555 anti-rabbit IgG F(ab′)2 fragment. Nuclear DNA was stained with 4′,6-dimidyl-2-phenylindole (DAPI). Immunofluorescence was recorded with an Olympus BK71 confocal microscope.
SKBR3 cells were incubated with ADC molecules at 37° C. for 45 or 90 min. Unbound ADC was removed by washing cells in a culture medium, then the cells were fixed and permeabilized. The marker proteins LAMP-1, GM130 and clathrin were detected with their respective antibodies and a secondary antibody conjugated to Alex®555 (red). Anti-Trop-2 ADC was detected with DyLight®488-conjugated secondary antibody (green). DAPI was used to stain nuclear DNA (blue).

[19] = ADCs, cell printed 'COXC28', Colon
[20] = ADCs, cell CPAC-1 [sic], Pancreas

**Q.** For `CCc1c2c(nc3ccc(O)cc13)-c1cc3c(c(=O)n1C2)COC(=O)[C@]3(O)CC` [SN38], which IC50 ([1]; free payloads, cell 'BKFC-Y' [sic]) is on record?
**A.** 20.8 nM

**Q.** And the IC50 ([2]; free payloads, cell 'ECLC 214' [sic], Small cell lung)?
**A.** 2.14 nM

**Q.** What about the IC50 ([3]; free payloads, cell 'CCAO205' [sic], Colen) of the same compound?
**A.** 33.4 nM

**Q.** What about the IC50 ([4]; free payloads, 'HCCHOI' [sic]) of the same compound?
**A.** 0.412 nM

**Q.** What about the IC50 ([5]; free payloads, cell 'SK-M55-1' [sic]) of the same compound?
**A.** 5.5 nM

**Q.** What about the IC50 ([6]; free payloads, cell 'Cepes-3' [sic]) of the same compound?
**A.** 5.61 nM

**Q.** And the IC50 ([7]; free payloads, 'MCP-83-21' [sic])?
**A.** 103 nM

**Q.** And the IC50 ([8]; free payloads, cell 'H123' [sic])?
**A.** > 305 nM

**Q.** And the IC50 ([9]; free payloads, cell CFPAC-1, Pancreas)?
**A.** ~0.281 nM

**Q.** And the IC50 ([10]; free payloads, cell printed 'MOA-413-468', Mamary)?
**A.** 3.72 nM

**Q.** And the IC50 ([11]; free payloads, cell 'SK8RS' [sic], Mamary)?
**A.** 2.14 nM

**Q.** And the IC50 ([12]; free payloads, cell 'NCl-H1828' [sic])?
**A.** ~4.9 nM

**Q.** For hRS7-VK-MMAE, which “killing effect on transplanted tumors not expressing Trop-2” value [13] is on record?
**A.** had a killing effect

**Q.** And the “adverse effects or weight loss in treated mice, relative to hRS7-VK-PTX (none)” value ([14]; hRS7-VK-MMAE 3 mg/kg, hRS7-VK-SN38 3 or 10 mg/kg, PTX alone)?
**A.** stark contrast

**Q.** And the “tumor growth inhibition index (TGI)” value [15]?
**A.** 91.7%

**Q.** And the IC50 ([1]; ADCs, cell RMCA [sic])?
**A.** 0.0124 nM

**Q.** And the IC50 ([2]; ADCs, SRM-C-21H)?
**A.** 0.0324 nM

**Q.** And the IC50 [3, 19]?
**A.** > 300 nM

**Q.** What about the IC50 ([4]; ADCs, 'HOC1906' [sic]) of the same compound?
**A.** 0.0174 nM

**Q.** What about the IC50 ([5]; ADCs, cell 'SK-WSS-7' [sic]) of the same compound?
**A.** > 325 nM

**Q.** And the IC50 ([6]; ADCs, Cxoo-1 [sic])?
**A.** > 300 nM

**Q.** And the IC50 [16]?
**A.** ~1.21 nM

**Q.** What about the IC50 ([7]; ADCs, cell 'SRM-K9-231' [sic]) of the same compound?
**A.** > 300 nM

**Q.** And the IC50 ([8]; ADCs, cell '3128' [sic])?
**A.** ~250 nM

**Q.** And the IC50 [9, 20]?
**A.** > 300 nM

**Q.** What about the IC50 ([10]; ADCs, SRM-M9-409, Mammary) of the same compound?
**A.** 0.0645 nM

**Q.** What about the IC50 ([11]; ADCs, 'SKERS' [sic], Mammary) of the same compound?
**A.** ~2.24 nM

**Q.** What about the IC50 ([12]; ADCs, cell 'HCl-11685' [sic]) of the same compound?
**A.** ~3.76 nM

**Q.** And the adverse reactions [17]?
**A.** severe adverse reactions

**Q.** And the body weight loss [17]?
**A.** more than 15%

**Q.** With hRS7-VK-SN38 as the compound, how does the “internalization and intracellular localization” value [18] read?
**A.** did not undergo significant internalization

**Q.** And the “adverse effects or weight loss in treated mice, relative to hRS7-VK-PTX (none)” value ([14]; mouse, in vivo)?
**A.** stark contrast

**Q.** And the IC50 ([1]; ADCs, cell RMCA [sic])?
**A.** 1.53 nM

**Q.** And the IC50 ([2]; ADCs, SRM-C-21H)?
**A.** 16.3 nM

**Q.** What about the IC50 [3, 19] of the same compound?
**A.** 16.8 nM

**Q.** What about the IC50 ([4]; ADCs, 'HOC1906' [sic]) of the same compound?
**A.** 0.879 nM

**Q.** And the IC50 ([5]; ADCs, cell 'SK-WSS-7' [sic])?
**A.** 80.5 nM

**Q.** And the IC50 ([6]; ADCs, Cxoo-1 [sic])?
**A.** 12.4 nM

**Q.** And the IC50 [16]?
**A.** 10.3 nM

**Q.** What about the IC50 ([7]; ADCs, cell 'SRM-K9-231' [sic]) of the same compound?
**A.** 3.03 nM

**Q.** What about the IC50 ([8]; ADCs, cell '3128' [sic]) of the same compound?
**A.** 5.59 nM

**Q.** And the IC50 [9, 20]?
**A.** 3.14 nM

**Q.** And the IC50 ([10]; ADCs, SRM-M9-409, Mammary)?
**A.** 1.37 nM

**Q.** And the IC50 ([11]; ADCs, 'SKERS' [sic], Mammary)?
**A.** 1.45 nM

**Q.** What about the IC50 ([12]; ADCs, cell 'HCl-11685' [sic]) of the same compound?
**A.** > 300 nM
